Laboratory results reported in patent publication US7897620B2, “Methods of using anti-inflammatory compounds” (Cambridge Enterprise Limited, priority 2007, dated 2011).

Tests used:
[1] = system: RANTES induced THP-1 cell migration; experiment: ChemoTx transwell migration assay, RANTES induced migration of THP-1 cells; format: cell-based; settings: Homo sapiens, maximal dose of chemoattractant, read-out: ED50 RANTES
Procedure: In principle, this assay consists of two chambers separated by a porous membrane. The chemoattractant is placed in the lower compartment and the cells are placed in the upper compartment. After incubation for a period at 37° C. the cells move towards the chemoattractant, and the number of cells in the lower compartment is proportional to the chemoattractant activity (relative to a series of controls).
The THP-1 cell line (European Cell Culture Collection) were used as the leukocyte cell population.
First, the cell suspension to be placed in the upper compartment is prepared. The THP-1 cells are pelleted by centrifugation (770×g; 4 mins) and washed with Geys Balanced Salt Solution with 1 mg/ml BSA (GBSS+BSA). This wash is then repeated, and the cells repelleted before being resuspended in a small volume of GBSS+BSA for counting, for example using a standard haemocytometer.
The volume of GBSS+BSA is then adjusted depending on the number of cells present so that the cells are at final density of 4.45×10^6 cells per ml of GBSS+BSA. This ensures that there are […] THP-1 cells in each 25 μl of the solution that will be placed in the upper chamber of the plate.
To test a single compound for its ability to inhibit chemokine induced migration, it is necessary to prepare two lots of cells. The suspension of THP-1 cells at 4.45×10^6 cells/ml is divided into two pots. […]

[2] = Water solubility (observation); format: physicochemical

With `O=C1NCCCC[C@@H]1NC(=O)C12CC3CC(CC(C3)C1)C2` [(II), 3-(adamantane-1-carbonylamino)-caprolactam] the EC50 [1] was 100 pM.

For `CC(C)(C)C(=O)N[C@H]1CCCNC1=O` [Compound (I′), 3-(2′,2′-dimethylpropanoylamino)-tetrahydropyridin-2-one], the “water solubility” value [2] was “extremely water soluble”.
